These results are taken from patent US20110124523A1, “High Throughput Method for Detecting Apoptosis of Embryonic Stages of Metazoan Helminthic Parasites” (INSTITUTE OF LIFE SCIENCES, priority 2009, published 2011).

Test [1] deals with embryonic stages of S. digitata. Description: Presence of cytochrome-c in the cytoplasm, anti cytochrome c-FITC staining. Format: cell-based, Setaria digitata. Conditions: 24 hr. As for the experimental part: (§1) Adult female filarial worms Setaria digitata were collected from the peritoneum of cattle, slaughtered at a nearby abattoir in sterile Hanks Balanced Salt Solution (HBSS) medium (Sigma H 2387-1L) and transported to the laboratory in a sterile container. The medium containing 1% glucose (Sigma G 7528), Penicillin 100 units/ml, Streptomycin 100 μg/ml (Sigma P 4333). And Amphotericin-B 0.25 μg/ml (Sigma A 2942) was buffered with NaHCO3 (Sigma S 5761). About 5 to 7 worms were taken in a petridish, washed three times in medium, dissected into small pieces in 10 ml of medium under sterile conditions and incubated at 37° C. for 30 minutes to allow the release of embryonic stages (eggs and microfilariae) into the medium. The embryonic stages were harvested into sterile 15 ml. centrifuge tubes and washed three times by centrifuging at 300 g for 10 minutes each with medium and the final pellet was suspended in 1 ml. of RPMI-1640 medium (Sigma R 8005) supplemented with 10% FBS (Sigma F 2442) The number of embryonic stages of S. digitata in the above preparation were counted using light microscope, and the suspension was taken in RPMI-1640 medium containing 10% FBS at 1×10^5 embryonic stages/ml. One ml. each was dispensed into individual wells of a 24 well tissue culture plate. One set of wells was taken as untreated control containing only medium with 10% FBS. […] Motility of the Mf was scored under an inverted microscope. After appropriate treatment and incubation, each set of the cultured embryonic stages of S. digitata were harvested from the 24 well tissue culture plate separately in 15 ml. sterile centrifuge tubes, washed with PBS twice and stained as per requirement following manufacturer's instructions as described below. This was followed by two times washing with PBS and final suspension of the stained embryonic stages was taken in 0.5 ml of sheath fluid (BD Biosciences 342003) before their acquisition in the flow cytometer (BD FACS Calibur, Becten and Dickinson, USA). Analysis was performed on 10,000-acquired events depicted as Dot Plots and Histogram Plots using Cellquest Pro soft ware. All plots were representative of at least 3 experiments. […] After in vitro culture for 24 hours with apoptosis inducing reagents the embryonic stages were harvested in 15 ml. sterile centrifuge tubes and fixed for 60 minutes at 0° C. in 1% paraformaldehyde (Sigma P 6148) in PBS. The suspension was washed first with PBS and then with 1× permeabilisation buffer (eBioscience 00-8333-56) and finally resuspended in 100 μl of 1× permeabilisation buffer at 1×10^5 embryonic stages per ml. This suspension was then incubated for 45 minutes with 20 μl of anti cytochrome c-FITC (eBioscience 11-6601-82). This was followed by washing with PBS twice and analysis by Flow cytometer.

Test [2] shares this test system. In words: Intra cellular activation of caspase-3 like cysteine proteinases, anti active caspase-3-PE staining. Format: cell-based, Setaria digitata. As to conditions: 24 hr. As to the method: as §1, with “active caspase-3-PE (BD Biosciences 559762).” for “cytochrome c-FITC (eBioscience 11-6601-82).”

Values joined by “and” are separate entries in the source; they are usually repeats but may differ in a detail not shown here. Equal values may be shown once.

With `OO` [H2O2], the “GMI (Geometric Mean Intensity) of Fluorescence, Cyt-c Staining” value (shortened to “GMI … Cyt-c Staining”) is 62.37 and 67.72 and 65.39 in test [1] (Eggs, 10 μM); 7.53 and 9.23 and 8.14 in test [1] (Microfilariae, 10 μM). In addition, the “GMI (Geometric Mean Intensity) of Fluorescence, Caspase-3 Activation” value (from here on “GMI … Caspase-3 Activation”) is 56.95 and 61.37 and 60.20 in test [2] (Eggs, 10 μM); 7.57 and 9.69 and 12.34 in test [2] (Microfilariae, 10 μM).

As for `CN[C@@H]1C[C@H]2O[C@@](C)([C@@H]1OC)n1c3ccccc3c3c4c(c5c6ccccc6n2c5c31)C(=O)NC4` [Staurosporine], the “GMI … Cyt-c Staining” value in test [1] (Eggs, 1 μM) was 54.33 and 61.66 and 57.27; in test [1] (Microfilariae, 1 μM), 6.02 and 4.20. In addition, the “GMI … Caspase-3 Activation” value in test [2] (Eggs, 1 μM) was 50.13 and 54.95 and 50.97; in test [2] (Microfilariae, 1 μM), 6.20 and 6.72.

Regarding `CC1=CC(=O)c2c(O)cccc2C1=O` [Plumbagin], the “GMI … Cyt-c Staining” value in test [1] (Eggs, 10 μM) was 70.29 and 76.25 and 71.32; in test [1] (Microfilariae, 10 μM) it was 18.69 and 20.32 and 17.56. For the same compound, the “GMI … Caspase-3 Activation” value in test [2] (Eggs, 10 μM) was 82.35 and 87.32 and 80.16; in test [2] (Microfilariae, 10 μM) it was 10.57 and 11.22 and 14.16.
